Experimental data from patent US20080146540A1, “Methods of diagnosis and treatment for asthma, allergic rhinitis and other respiratory diseases based on haplotype association” (priority 2003, published 2008).

Test system: asthma patients
Assay: Phase II clinical study CEP-1347-201: methacholine challenge test (MCT; PC20 ANCOVA, survival analysis, model based EC50 analysis, AUC analysis)
Assay type: in vivo, human
Details: for Percent of subjects with an increase in the AUC for the methacholine dose-response curve (AUCPost > AUCPre): after 8 weeks, placebo 33%; for median event-causing (20% drop in FEV1) methacholine concentration, PC20 survival analysis at week 8: placebo 3.0, log-rank p=0.02; for % Shift in EC50 (methacholine): model based analysis, vs placebo EC50; for Patients with Censored PC20 / Patients with PC20: week 8; for PC20 Change from Baseline at Week 8, LS Mean: ANCOVA, actual + imputed PC20
Description: A methacholine challenge test (MCT) was conducted at baseline and at the end of the 8-week treatment period in a subset of patients. The MCT test was not undertaken if, in the opinion of the investigator, MCT administration was contraindicated based on the patient's condition or the patient declined to participate. Patients that underwent a MCT were exposed to escalating doses of methacholine (methacholine administration typically leads to an acute decrease in lung function) and changes in lung function were measured by FEV1. The dose of methacholine was escalated until FEV1 decreased by 20% or the maximum MCT dose was reached. The dose of methacholine that produced a 20% decrease in FEV1 (PC20) was recorded. The change in FEV1 associated with each administration/dose of methacholine was recorded
The methacholine challenge test was conducted in a subset of patients at baseline and at the end of the 8-week treatment period.
In these cases the highest methacholine dose the patient received was assumed to be the PC20.
A 20% drop in FEV1 (PC20) was considered to be an event observation and the methacholine dose was treated as the “survival time” variable in the survival analysis. […] A Kaplan-Meier's product-limit estimate of the survival curve was generated; treatment effects were compared using a standard log-rank test; and baseline MCT information was ignored.
To make use of all methacholine-FEVI data a post hoc, model based analysis (i.e., nonlinear mixed effects model) was undertaken. The goal of the model based analysis was to estimate the magnitude of CEP-1347 effect on the patient's sensitivity to methacholine.
• the approach is more complex and less widely accepted compared to ANCOVA or survival analysis approaches • assumptions regarding the model structure are necessary • the suppressive effect of methacholine on lung functions was assumed to follow a classic inhibitory EMAX model, • the attenuating effect of CEP-1347 was assumed to shift an individual's EC50 or sensitivity to methacholine.
The model based analysis utilized 2202 FEV1 measurements following methacholine dosing. MCT data were available from 123 patients corresponding to approximately 17.9 observations per patient.
FEV1=E0*(1−EMAX*MET^γ/(EC50^γ+MET^γ))+ε(1) (Eq. 1)
Where, E0 was the FEV1 associated with a methacholine dose of 0, MET was the methacholine dose, EMAX was the maximum fractional suppression of FEV1 by methacholine, EC50 was the methacholine concentration at which 50% of maximal suppression was achieved, γ was the Hill coefficient, and ε (1) was the residual error term.
Inter-subject random effects were included on EMAX and EC50. […] Subsequently, the effect of CEP-1347 on the methacholine dose-response was added to the model. […] In other words, this model based approach asks the questions “Does CEP-1347 cause a patient to be less sensitive to methacholine (i.e., increase the individual patient's methacholine EC50)”. For the purposes of this model based analysis equation 2 describes the implementation of the CEP-1347 effect on the attenuation of the methacholine dose-response relationship:
Model selection was done on the basis of the log likelihood criterion (p<0.05) and visual inspection of goodness-of-fit plots. The difference in −2 times the log of the likelihood (−2LL) between a full and reduced model is asymptotically χ^2 distributed with degrees of freedom equal to the difference in number of parameters between the two models.

For `CCSCc1ccc2c(c1)c1c3c(c4c5cc(CSCC)ccc5n5c4c1n2C1CC(O)(C(=O)OC)C5(C)O1)CNC3=O` (centres unmarked) [CEP-1347], the “Percent of subjects with an increase in the AUC for the methacholine dose-response curve (AUCPost > AUCPre)” value (shortened to “Percent of subjects with an increase”) (10 mg BID, Cochran-Mantel-Haenzel p = 0.075, logistic regression p = 0.039) was 55%, the “median event-causing (20% drop in FEV1) methacholine concentration, PC20 survival analysis at week 8” value (10 mg BID, 95% confidence interval (0.85,+∞)) was 3.7 µg/mL and the “% Shift in EC50 (methacholine)” value (10 mg BID) was −40%. For the same compound, the “Patients with Censored PC20” value (10 mg BID) was 11 (39%) n (% of treatment group), the “Patients with PC20” value (10 mg BID) was 17 (61%) n (% of treatment group) and the “Percent of subjects with an increase” value (25 mg BID) was 58%. For the same compound, the “median event-causing (20% drop in FEV1) methacholine concentration, PC20 survival analysis at week 8” value (25 mg BID, 95% confidence interval (1.87,+∞)) was 6.8 µg/mL, the “% Shift in EC50 (methacholine)” value (25 mg BID) was 21% and the “Patients with Censored PC20” value (25 mg BID) was 8 (47%) n (% of treatment group). The “Patients with PC20” value (25 mg BID) was 9 (53%) n (% of treatment group), the “PC20 change from baseline at week 8 (ANCOVA)” value (50 mg BID group) was “seemingly worsened” and the “Percent of subjects with an increase” value (50 mg BID) was 59%. For the same compound, the “median event-causing (20% drop in FEV1) methacholine concentration, PC20 survival analysis at week 8” value (50 mg BID, 95% confidence interval (0.6, 3.0)) was 0.85 µg/mL, the “% Shift in EC50 (methacholine)” value (50 mg BID) was 43% and the “increase of the methacholine EC50 (shift of methacholine-FEV1 dose-response curve to the right), model based analysis” value (50 mg BID, nonlinear mixed effects model, effect size estimates imprecise) was 43%. The “Patients with Censored PC20” value (50 mg BID) was 3 (14%) n (% of treatment group), the “Patients with PC20” value (50 mg BID) was 18 (86%) n (% of treatment group) and the “PC20 Change from Baseline at Week 8, LS Mean” value (“PC20 Change … LS Mean” below) (CEP-1347 10 mg BID, p .66) was 1.00. The “PC20 Change … LS Mean” value (CEP-1347 25 mg BID, p .77) was 1.84, the “PC20 Change … LS Mean” value (CEP-1347 50 mg BID, p .02) was −1.18 and the “Summary of MCT analyses: ANCOVA, Results and Comments” value (PC20 at baseline and week 8) was “Not significant”. The “PC20 change from baseline at week 8 (ANCOVA)” value (all CEP-1347 groups vs placebo, PC20 imputed as highest methacholine dose where no 20% FEV1 decline) was “No clinical or statistically significant improvement” and the “effect on methacholine effects on FEV1, model based analysis” value (all doses, full vs reduced model p=0.02) was “dose related attenuation”.
